Reference: ChEMBL document CHEMBL1128556, “New spiropiperidines as potent and selective non-peptide tachykinin NK2 receptor antagonists” (J Med Chem, 1995)

biological target: T1, Substance-K receptor (Rattus norvegicus, UniProt P16610); assay: Binding affinity against tachykinin receptor 2 from rat colon.
T1 sequence (P16610 whole entry): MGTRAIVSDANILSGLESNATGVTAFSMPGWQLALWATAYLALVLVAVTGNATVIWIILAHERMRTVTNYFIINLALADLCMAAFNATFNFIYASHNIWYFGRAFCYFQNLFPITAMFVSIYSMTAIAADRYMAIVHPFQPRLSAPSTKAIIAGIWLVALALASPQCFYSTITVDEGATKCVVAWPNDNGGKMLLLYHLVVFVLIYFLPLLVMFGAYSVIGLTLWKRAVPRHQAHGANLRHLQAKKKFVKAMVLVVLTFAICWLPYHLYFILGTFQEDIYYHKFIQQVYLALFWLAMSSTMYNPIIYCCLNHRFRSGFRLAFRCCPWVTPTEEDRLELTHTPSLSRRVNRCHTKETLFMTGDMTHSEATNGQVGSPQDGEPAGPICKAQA

| SMILES | Ki [µM] |
| --- | --- |
| O=C1OC2(CCN(CCc3c[nH]c4ccc(F)cc34)CC2)CN1Cc1ccc(F)cc1F | 0.00631 |
| O=C1OC2(CCN(CCc3c[nH]c4ccc(F)cc34)CC2)CN1Cc1ccc(F)cc1 | 0.00398 |
| O=C1OC2(CCN(CCc3c[nH]c4ccc(F)cc34)CC2)CN1C(c1ccccc1)c1ccccc1 | 0.02 |
| COc1ccc(CN2CC3(CCN(CCc4c[nH]c5ccc(F)cc45)CC3)OC2=O)cc1 | 0.00398 |
| O=C1OC2(CCN(CCc3c[nH]c4ccc(F)cc34)CC2)CN1Cc1ccccc1 | 0.00126 |
| CC(c1ccccc1)N1CC2(CCN(CCc3c[nH]c4ccc(F)cc34)CC2)OC1=O (configuration not stated) | 0.02 |
| O=C1OC2(CCN(CCc3c[nH]c4ccc(F)cc34)CC2)CN1C(=O)c1ccccc1 | 0.00251 |
| Cc1ccccc1CN1CC2(CCN(CCc3c[nH]c4ccc(F)cc34)CC2)OC1=O | 0.0126 |
| CC(=O)N(Cc1ccccc1)CC1(O)CCN(CCc2c[nH]c3ccc(F)cc23)CC1 | 0.00158 |
| O=C1OC2(CCN(CCc3c[nH]c4ccc(F)cc34)CC2)CN1Cc1cccc(F)c1 | 0.00158 |
| Cc1ccc(S(=O)(=O)N2CC3(CCN(CCc4c[nH]c5ccc(F)cc45)CC3)OC2=O)cc1 | 0.00501 |
| Cc1ccc(CN2CC3(CCN(CCc4c[nH]c5ccc(F)cc45)CC3)OC2=O)cc1 | 0.001 |
| O=C1OC2(CCN(CCc3c[nH]c4ccc(F)cc34)CC2)CN1Cc1cccnc1 | 0.2 |
| Fc1ccc2[nH]cc(CCN3CCC4(CC3)CCN(Cc3ccccc3)C4)c2c1 | 0.00631 |
| O=C1OC2(CCN(CCc3c[nH]c4ccc(F)cc34)CC2)CN1Cc1ccc(Cl)cc1 | 0.01 |
| COC(=O)c1cccc(CN2CC3(CCN(CCc4c[nH]c5ccc(F)cc45)CC3)OC2=O)c1 | 0.0794 |
| O=C1OC2(CCN(CCc3c[nH]c4ccc(F)cc34)CC2)CN1Cc1ccc2ccccc2c1 | 0.02 |
| O=C1NC2(CCN(CCc3c[nH]c4ccc(F)cc34)CC2)CN1Cc1ccccc1 | 0.00126 |
| O=C1OC2(CCN(CCc3c[nH]c4ccc(F)cc34)CC2)CN1Cc1cccc2ccccc12 | 0.00794 |
| O=C1OC2(CCN(CCc3c[nH]c4ccc(F)cc34)CC2)CN1Cc1ccncc1 | 0.1 |
| CN1CC2(CCN(CCc3c[nH]c4ccc(F)cc34)CC2)OC1=O | 1.58 |
| N#Cc1ccc(CN2CC3(CCN(CCc4c[nH]c5ccc(F)cc45)CC3)OC2=O)cc1 | 0.1 |
| O=C1OC2(CCN(CCc3c[nH]c4ccc(F)cc34)CC2)CN1CCc1ccccc1 | 0.01 |
| O=C1CC2(CCN(CCc3c[nH]c4ccc(F)cc34)CC2)CN1Cc1ccccc1 | 0.00126 |
| O=C1OC2(CCN(CCc3c[nH]c4ccc(F)cc34)CC2)CN1Cc1ccccn1 | 0.0158 |
| O=C1NC2(CCN(CCc3c[nH]c4ccc(F)cc34)CC2)C(=O)N1Cc1ccccc1 | 0.126 |
| OC1(CNCc2ccccc2)CCN(CCc2c[nH]c3ccc(F)cc23)CC1 | 0.1 |
| O=C1CC2(CCN(CCc3c[nH]c4ccc(F)cc34)CC2)NN1Cc1ccccc1 | 0.01 |

biological target: T2, Substance-K receptor (Homo sapiens, UniProt P21452); assay: The compound was tested for binding affinity against Tachykinin receptor 2 from human expressed in CHO cells; assay type: cell-based
T2 sequence (P21452 whole entry): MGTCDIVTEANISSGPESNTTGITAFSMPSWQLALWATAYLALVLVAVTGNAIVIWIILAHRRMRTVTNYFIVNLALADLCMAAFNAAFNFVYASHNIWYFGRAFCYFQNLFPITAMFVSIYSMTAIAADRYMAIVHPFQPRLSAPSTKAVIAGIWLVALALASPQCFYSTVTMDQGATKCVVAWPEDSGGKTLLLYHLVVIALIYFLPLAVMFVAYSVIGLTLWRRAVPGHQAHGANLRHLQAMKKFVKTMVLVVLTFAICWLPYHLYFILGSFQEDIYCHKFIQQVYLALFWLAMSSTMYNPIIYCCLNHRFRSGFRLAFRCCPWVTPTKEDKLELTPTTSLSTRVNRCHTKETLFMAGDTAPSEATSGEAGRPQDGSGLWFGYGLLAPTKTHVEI

| SMILES | Ki [µM] |
| --- | --- |
| O=C1OC2(CCN(CCc3c[nH]c4ccc(F)cc34)CC2)CN1Cc1ccccc1 | 0.00794 |

biological target: Substance-P receptor (Cavia porcellus, UniProt P30547); assay: The compound was tested for binding affinity against Tachykinin receptor 1 from guinea pig trachea
Sequence (P30547 whole entry): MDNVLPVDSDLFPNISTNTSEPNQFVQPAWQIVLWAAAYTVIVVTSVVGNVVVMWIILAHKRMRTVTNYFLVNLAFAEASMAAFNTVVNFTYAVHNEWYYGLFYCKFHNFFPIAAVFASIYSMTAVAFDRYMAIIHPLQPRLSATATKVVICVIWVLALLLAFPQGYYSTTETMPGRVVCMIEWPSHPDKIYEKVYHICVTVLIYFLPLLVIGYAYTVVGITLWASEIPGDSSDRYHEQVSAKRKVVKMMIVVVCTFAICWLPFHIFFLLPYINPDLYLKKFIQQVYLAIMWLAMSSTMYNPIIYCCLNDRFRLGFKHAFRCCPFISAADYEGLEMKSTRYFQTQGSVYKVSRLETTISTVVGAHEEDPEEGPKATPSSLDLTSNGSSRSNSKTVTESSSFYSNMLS

| SMILES | Ki [µM] |
| --- | --- |
| O=C1OC2(CCN(CCc3c[nH]c4ccc(F)cc34)CC2)CN1Cc1ccccc1 | > 10 |

biological target: T3, Neuromedin-K receptor (Cavia porcellus, UniProt P30098); assay: The compound was tested for binding affinity against Tachykinin receptor 3 from guinea pig cerebral cortex; assay type: tissue-based
T3 sequence (P30098 whole entry): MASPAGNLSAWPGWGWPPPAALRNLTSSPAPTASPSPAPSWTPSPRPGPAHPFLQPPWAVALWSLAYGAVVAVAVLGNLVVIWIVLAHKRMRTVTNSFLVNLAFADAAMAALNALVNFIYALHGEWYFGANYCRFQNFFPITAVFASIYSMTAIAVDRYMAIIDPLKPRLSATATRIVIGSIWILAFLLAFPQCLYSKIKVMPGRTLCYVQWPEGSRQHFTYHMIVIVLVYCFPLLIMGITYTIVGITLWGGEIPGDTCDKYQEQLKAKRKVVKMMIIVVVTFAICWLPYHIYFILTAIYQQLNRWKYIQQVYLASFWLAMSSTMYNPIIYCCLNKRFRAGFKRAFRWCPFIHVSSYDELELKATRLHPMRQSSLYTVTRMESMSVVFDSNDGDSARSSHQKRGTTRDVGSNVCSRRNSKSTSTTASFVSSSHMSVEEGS

| SMILES | Ki [µM] |
| --- | --- |
| O=C1OC2(CCN(CCc3c[nH]c4ccc(F)cc34)CC2)CN1Cc1ccccc1 | 79.4 |

biological target: T4, Substance-K receptor (Cavia porcellus, UniProt Q64077); assay: The compound was tested for binding affinity against Tachykinin receptor 2 from guinea pig trachea
T4 sequence (Q64077 whole entry): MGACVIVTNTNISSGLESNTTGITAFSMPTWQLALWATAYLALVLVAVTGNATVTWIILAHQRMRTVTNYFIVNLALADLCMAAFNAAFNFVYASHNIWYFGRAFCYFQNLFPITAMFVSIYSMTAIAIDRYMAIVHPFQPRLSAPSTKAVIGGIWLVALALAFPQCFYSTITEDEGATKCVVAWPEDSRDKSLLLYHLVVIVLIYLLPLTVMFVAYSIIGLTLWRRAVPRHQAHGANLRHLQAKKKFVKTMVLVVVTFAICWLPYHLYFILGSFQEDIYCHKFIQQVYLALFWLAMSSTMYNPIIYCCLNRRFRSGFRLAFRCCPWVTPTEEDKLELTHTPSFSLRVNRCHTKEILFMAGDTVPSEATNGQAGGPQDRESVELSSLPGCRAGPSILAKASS

| SMILES | Ki [µM] |
| --- | --- |
| O=C1OC2(CCN(CCc3c[nH]c4ccc(F)cc34)CC2)CN1Cc1ccccc1 | 0.00251 |
